Assay [1] has as its system pCHK1 (S345) in Colo320 DM cells. Description: Alphalisa assay, detection of pCHK1 (S345) in Colo320 DM cells. It counts as cell-based, human. The note with it: Homo sapiens, COLO 320DM, compound overnight (approximately 16 hours). An outline of the steps: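 Phospho-CHK1 (S345) read by AlphaLisa SureFire in lysates of human colorectal Colo320 DM cells. Compound treatment ran overnight (~16 h, 37 °C, DMSO <0.5%) on cells seeded the day before.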

In the next assay the target is T1, RNR (RNR1:RNR2 1:1) (Homo sapiens, UniProt P23921).
T1 sequence (P23921 1-792): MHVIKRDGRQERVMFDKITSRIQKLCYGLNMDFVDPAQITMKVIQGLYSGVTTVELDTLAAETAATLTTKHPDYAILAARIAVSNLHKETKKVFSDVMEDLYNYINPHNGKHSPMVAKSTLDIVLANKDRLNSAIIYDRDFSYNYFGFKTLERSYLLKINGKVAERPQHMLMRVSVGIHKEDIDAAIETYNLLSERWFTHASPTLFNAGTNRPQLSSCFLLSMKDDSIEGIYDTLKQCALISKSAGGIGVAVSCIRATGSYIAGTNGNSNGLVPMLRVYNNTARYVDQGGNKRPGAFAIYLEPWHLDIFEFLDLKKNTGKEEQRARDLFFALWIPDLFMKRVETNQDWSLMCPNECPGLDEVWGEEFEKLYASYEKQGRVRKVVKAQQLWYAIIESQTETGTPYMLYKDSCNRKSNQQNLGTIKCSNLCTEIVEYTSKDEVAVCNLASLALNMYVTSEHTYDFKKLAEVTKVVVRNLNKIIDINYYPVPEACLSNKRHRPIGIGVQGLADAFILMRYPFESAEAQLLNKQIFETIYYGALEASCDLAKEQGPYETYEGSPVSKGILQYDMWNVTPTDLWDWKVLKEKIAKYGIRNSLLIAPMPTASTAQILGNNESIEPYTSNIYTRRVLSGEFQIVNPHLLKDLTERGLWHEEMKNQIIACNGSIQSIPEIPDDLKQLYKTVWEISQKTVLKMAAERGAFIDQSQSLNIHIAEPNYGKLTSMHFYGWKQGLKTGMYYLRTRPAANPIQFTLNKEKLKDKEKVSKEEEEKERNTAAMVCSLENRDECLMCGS
In words: RNR enzyme activity, rapid-fire mass spectrometry (RF/MS) assay. The note with it: [RNR] 50 nM, 1:1 RNR1:RNR2; CDP 5 μM; ATP 1 mM; 37° C., 45 min; compounds screened up to 50 μM. It counts as biochemical. An outline of the steps: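 Human RNR (50 nM final, RNR1:RNR2 1:1) pre-incubated 15 min at room temperature, then reacted 45 min at 37 °C with 5 μM CDP and 1 mM ATP, no NADPH. Reaction quenched with 6% HCOOH; product quantified by rapid-fire mass spectrometry.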

By IC50 is commonly meant the midpoint of a concentration-inhibition curve.

For `Cc1ccc(F)c([C@@H](C)[C@@H](c2n[nH]c(=O)o2)N2CN(C)C(=O)c3cc(Cl)ccc3S2(=O)=O)c1C` [Example 35, 5-((1S,2R)-1-(7-chloro-4-methyl-1,1-dioxido-5-oxo-4,5-dihydrobenzo[f][1,2,4]thiadiazepin-2 (3H)-yl)-2-(6-fluoro-2,3-dimethylphenyl)propyl)-1,3,4-oxadiazol-2 (3H)-one], the IC50 in assay [1] fell in the range of 10000 to 50000 nM; at RNR (RNR1:RNR2 1:1) it was 20 to 100 nM.

In the case of `Cc1ccc(F)c([C@@H](C)[C@@H](c2n[nH]c(=O)o2)N2CCOc3c(ccc(Cl)c3C)S2(=O)=O)c1C` [Example 36, 5-((1S,2R)-1-(7-chloro-6-methyl-1,1-dioxido-3,4-dihydro-2H-benzo[b][1,4,5]oxathiazepin-2-yl)-2-(6-fluoro-2,3-dimethylphenyl)propyl)-1,3,4-oxadiazol-2 (3H)-one], the IC50 in assay [1] is 1000 to 5000 nM; on RNR (RNR1:RNR2 1:1) it was < 20 nM.

As to `Cc1ccc(F)c([C@@H](C)[C@@H](c2n[nH]c(=O)o2)N2CN(C)c3cc(Cl)cc(C(=O)N(C)C)c3S2(=O)=O)c1C` [Example 37, 6-chloro-2-((1S,2R)-2-(6-fluoro-2,3-dimethylphenyl)-1-(5-oxo-4,5-dihydro-1,3,4-oxadiazol-2-yl)propyl)-N,N,4-trimethyl-3,4-dihydro-2H-benzo[e][1,2,4]thiadiazine-8-carboxamide 1,1-dioxide], the values for the IC50 (in assay [1]; at RNR (RNR1:RNR2 1:1)) were > 50000 nM and 1000 to 10000 nM, respectively.

`Cc1ccc(F)c([C@@H](C)[C@@H](c2n[nH]c(=O)o2)N2CN(CCN(C)C)c3cc(Cl)ccc3S2(=O)=O)c1C` [Example 38, 5-((1S,2R)-1-(6-chloro-4-(2-(dimethylamino)ethyl)-1,1-dioxido-3,4-dihydro-2H-benzo[e][1,2,4]thiadiazin-2-yl)-2-(6-fluoro-2,3-dimethylphenyl)propyl)-1,3,4-oxadiazol-2 (3H)-one]: the figures for the IC50 (in assay [1]; against RNR (RNR1:RNR2 1:1)) were ≤ 1000 nM and < 20 nM, respectively.

`Cc1ccc(F)c([C@H](C)[C@@H](c2n[nH]c(=O)o2)N2CN(C)c3cc(Cl)cc(C(=O)N(C)C)c3S2(=O)=O)c1C` [Example 39]: the IC50 was > 50000 nM in assay [1] and 10000 to 100000 nM on RNR (RNR1:RNR2 1:1).

Consider `Cc1ccc(F)c(C(C)[C@@H](c2n[nH]c(=O)o2)N2CCOc3c(ccc(Cl)c3C(C)(C)O)S2(=O)=O)c1C` (stereo partly drawn) [Example 40, 5-((1S)-1-(7-chloro-6-(2-hydroxypropan-2-yl)-1,1-dioxido-3,4-dihydro-2H-benzo[b][1,4,5]oxathiazepin-2-yl)-2-(6-fluoro-2,3-dimethylphenyl)propyl)-1,3,4-oxadiazol-2 (3H)-one], for which the IC50 in assay [1] is 5000 to 10000 nM; on RNR (RNR1:RNR2 1:1), < 20 nM.

Take `Cc1ccc(F)c([C@@H](C)[C@@H](c2n[nH]c(=O)o2)N2COc3cc(Cl)cc(C(=O)N(C)C)c3S2(=O)=O)c1C` [Example 41, 6-chloro-2-((1S,2R)-2-(6-fluoro-2,3-dimethylphenyl)-1-(5-oxo-4,5-dihydro-1,3,4-oxadiazol-2-yl)propyl)-N,N-dimethyl-2,3-dihydrobenzo[e][1,4,3]oxathiazine-8-carboxamide 1,1-dioxide]: the 50% inhibitory concentration (IC50) in assay [1] is > 50000 nM; on RNR (RNR1:RNR2 1:1), 100 to 1000 nM.

Consider `Cc1ccc(F)c([C@@H](C)[C@@H](c2n[nH]c(=O)o2)N2CN(C3COC3)c3cc(Cl)ccc3S2(=O)=O)c1C` [Example 42, 5-((1S,2R)-1-(6-chloro-4-(oxetan-3-yl)-1,1-dioxido-3,4-dihydro-2H-benzo[e][1,2,4]thiadiazin-2-yl)-2-(6-fluoro-2,3-dimethylphenyl)propyl)-1,3,4-oxadiazol-2 (3H)-one], for which the IC50 in assay [1] was ≤ 1000 nM; at RNR (RNR1:RNR2 1:1), < 20 nM.

As to `COCCN1CN([C@H](c2n[nH]c(=O)o2)[C@H](C)c2c(F)ccc(C)c2C)S(=O)(=O)c2ccc(Cl)cc21` [Example 45, 5-((1S,2R)-1-(6-chloro-4-(2-methoxyethyl)-1,1-dioxido-3,4-dihydro-2H-benzo[e][1,2,4]thiadiazin-2-yl)-2-(6-fluoro-2,3-dimethylphenyl)propyl)-1,3,4-oxadiazol-2 (3H)-one], the IC50 in assay [1] is ≤ 1000 nM; at RNR (RNR1:RNR2 1:1), < 20 nM.

As for `Cc1ccc(F)c([C@@H](C)[C@@H](c2n[nH]c(=O)o2)N2CN(C(=O)C3CC3)c3cc(Cl)ccc3S2(=O)=O)c1C` [Example 46, 5-((1S,2R)-1-(6-chloro-4-(cyclopropanecarbonyl)-1,1-dioxido-3,4-dihydro-2H-benzo[e][1,2,4]thiadiazin-2-yl)-2-(6-fluoro-2,3-dimethylphenyl)propyl)-1,3,4-oxadiazol-2 (3H)-one], the IC50 in assay [1] was ≤ 1000 nM; against RNR (RNR1:RNR2 1:1), < 20 nM.

Regarding `Cc1ccc(F)c([C@@H](C)[C@@H](c2n[nH]c(=O)o2)N2CN(C3CCN(C)CC3)c3cc(Cl)ccc3S2(=O)=O)c1C` [Example 47, 5-((1S,2R)-1-(6-chloro-4-(1-methylpiperidin-4-yl)-1,1-dioxido-3,4-dihydro-2H-benzo[e][1,2,4]thiadiazin-2-yl)-2-(6-fluoro-2,3-dimethylphenyl)propyl)-1,3,4-oxadiazol-2 (3H)-one], the IC50 is 1000 to 5000 nM in assay [1] and < 20 nM at RNR (RNR1:RNR2 1:1).

On to `Cc1ccc(F)c([C@@H](C)[C@@H](c2n[nH]c(=O)o2)N2CN(CC3CCOC3)c3cc(Cl)ccc3S2(=O)=O)c1C` (stereo partly drawn) [Example 49, 5-((1S,2R)-1-(6-chloro-1,1-dioxido-4-((tetrahydrofuran-3-yl)methyl)-3,4-dihydro-2H-benzo[e][1,2,4]thiadiazin-2-yl)-2-(6-fluoro-2,3-dimethylphenyl)propyl)-1,3,4-oxadiazol-2 (3H)-one], for which the IC50 in assay [1] is ≤ 1000 nM; against RNR (RNR1:RNR2 1:1), < 20 nM.

In the case of `Cc1ccc(F)c([C@@H](C)[C@@H](c2n[nH]c(=O)o2)N2CN(C3CCCN(C)C3)c3cc(Cl)ccc3S2(=O)=O)c1C` (stereo partly drawn) [Example 51, 5-((1S,2R)-1-(6-chloro-4-(1-methylpiperidin-3-yl)-1,1-dioxido-3,4-dihydro-2H-benzo[e][1,2,4]thiadiazin-2-yl)-2-(6-fluoro-2,3-dimethylphenyl)propyl)-1,3,4-oxadiazol-2 (3H)-one], the IC50 in assay [1] is ≤ 1000 nM; at RNR (RNR1:RNR2 1:1), < 20 nM.

Take `Cc1ccc(F)c([C@@H](C)[C@@H](c2n[nH]c(=O)o2)N2CN(C[C@H]3CCCO3)c3cc(Cl)ccc3S2(=O)=O)c1C` [Example 52, 5-((1S,2R)-1-(6-chloro-1,1-dioxido-4-(((R)-tetrahydrofuran-2-yl)methyl)-3,4-dihydro-2H-benzo[e][1,2,4]thiadiazin-2-yl)-2-(6-fluoro-2,3-dimethylphenyl)propyl)-1,3,4-oxadiazol-2 (3H)-one]: the figures for the half-maximal inhibitory concentration (IC50) (in assay [1]; at RNR (RNR1:RNR2 1:1)) were ≤ 1000 nM and < 20 nM, respectively.

Take `Cc1ccc(F)c([C@@H](C)[C@@H](c2n[nH]c(=O)o2)N2CCOc3c(ccc(Cl)c3CN(C)C)S2(=O)=O)c1C` [Example 55, 5-((1S,2R)-1-(7-chloro-6-((dimethylamino)methyl)-1,1-dioxido-3,4-dihydro-2H-benzo[b][1,4,5]oxathiazepin-2-yl)-2-(6-fluoro-2,3-dimethylphenyl)propyl)-1,3,4-oxadiazol-2 (3H)-one]: the IC50 is 1000 to 5000 nM in assay [1] and < 20 nM on RNR (RNR1:RNR2 1:1).

`CC(=O)N1CN([C@H](c2n[nH]c(=O)o2)[C@H](C)c2c(F)ccc(C)c2C)S(=O)(=O)c2ccc(Cl)cc21` [Example 56, 5-((1S,2R)-1-(4-acetyl-6-chloro-1,1-dioxido-3,4-dihydro-2H-benzo[e][1,2,4]thiadiazin-2-yl)-2-(6-fluoro-2,3-dimethylphenyl)propyl)-1,3,4-oxadiazol-2 (3H)-one]: the IC50 in assay [1] was 1000 to 5000 nM; at RNR (RNR1:RNR2 1:1), < 20 nM.

Regarding `Cc1ccc(F)c([C@@H](C)[C@@H](c2n[nH]c(=O)o2)N2CN(C3CNC3)c3cc(Cl)ccc3S2(=O)=O)c1C` [Example 57, 5-((1S,2R)-1-(4-(azetidin-3-yl)-6-chloro-1,1-dioxido-3,4-dihydro-2H-benzo[e][1,2,4]thiadiazin-2-yl)-2-(6-fluoro-2,3-dimethylphenyl)propyl)-1,3,4-oxadiazol-2 (3H)-one], the IC50 lay in the range of 10000 to 50000 nM in assay [1] and 20 to 100 nM at RNR (RNR1:RNR2 1:1).

On to `Cc1ccc(F)c([C@@H](C)[C@@H](c2n[nH]c(=O)o2)N2CN([C@@H]3CCNC3)c3cc(Cl)ccc3S2(=O)=O)c1C` [Example 58, 5-((1S,2R)-1-(6-chloro-1,1-dioxido-4-((R)-pyrrolidin-3-yl)-3,4-dihydro-2H-benzo[e][1,2,4]thiadiazin-2-yl)-2-(6-fluoro-2,3-dimethylphenyl)propyl)-1,3,4-oxadiazol-2 (3H)-one], for which the values for the IC50 (in assay [1]; against RNR (RNR1:RNR2 1:1)) were 10000 to 50000 nM and 20 to 100 nM, respectively.

(Values after patent US20260085067A1, “CYCLIC SULFONAMIDE RIBONUCLEOTIDE REDUCTASE (RNR) INHIBITORS AND USES THEREOF” (Boundless Bio, Inc., priority 2022, published 2026).)
